From patent publication US9399631B2, “Polyphenol proteasome inhibitors, synthesis, and methods of use” (UNIVERSITY OF SOUTH FLORIDA, priority 2003, dated 2016)
Like-named read-outs stand apart in the source and are kept apart here.

Legend:
DU145 cells = assay: Western blot of Bax and PARP in DU145 cells; type: cell-based, human; settings: 10 μM, 24 hours
Method: Cell Culture, Cell Extract Preparation, and Western Blot Assay. Human leukemia Jurkat T and prostate cancer LNCaP cells were cultured in RPMI 1640 medium supplemented with 10% fetal calf serum, 100 units/ml of penicillin, and 100 μg/ml streptomycin. Human immortalized, non-transformed NK cells (YT cell line) (38) were cultured in RPMI 1640 supplemented with 1 mM MEM sodium pyruvate solution, 0.1 mM MEM non-essential amino acids solution, 10% fetal calf serum. 100 units/ml penicillin, and 100 μg/ml streptomycin. Normal (WI-38) and simian virus 40 (SV40)-transformed (VA-13) human fibroblasts were grown in Dulbecco's modified Eagle's medium supplemented with 10% fetal calf serum, 100 units/ml of penicillin and 100 μg/ml of streptomycin. All cells were maintained at 37° C. in a humidified incubator with an atmosphere of 5% CO2. A whole cell extract was prepared in accordance with An et al. (An, B. et al. Cell Death Differ, 1998, 5:1062-75). […] The ratio of p27 or IκB-α to the corresponding actin was determined by scanning intensities of the protein bands.
Exponentially growing LNCaP and DU-145 prostate cells were harvested and the levels of Bax protein was detected by Western blot analysis (FIG. 20A). […]

LNCaP cells = assay: Flow cytometry cell cycle analysis, LNCaP cells; type: cell-based, human; settings: 10 μM, 24 hours
Method: Flow Cytometry. Cell cycle analysis based on DNA content was performed as in An et al. (An, B. et al. Cell Death Differ, 1998, 5:1062-75). At each time point, cells were harvested, counted, and washed twice with PBS. Cells (5×10^6) were suspended in 0.5 ml PBS, fixed in 5 ml of 70% ethanol overnight at −20° C., centrifuged, resuspended again in 1 ml of propidium iodide staining solution (50 μg propidium iodide, 100 units RNase A and 1 mg glucose per ml PBS), and incubated at room temperature for 30 minutes. The cells were then analyzed with FACScan (Becton Dickinson Immunocytometry, Calif.), ModFit LT and WinMDI V.2.8 cell cycle analysis software (Verity Software; Topsham, Me.). The cell cycle distribution is shown as the percentage of cells containing G1, S, G2, and M phase DNA judged by propidium iodide staining The apoptotic population is determined as the percentage of cells with sub-G1 DNA content (<G1).
It has been shown that overexpression of p27 and IκB-α results in G1 arrest. If increased levels of these proteasome target proteins by synthetic GTPs are functional, it would be expected to see growth arrest of tumor cells in G1 phase. To test this hypothesis, asynchronous prostate LNCaP cells were treated with 10 μM of synthetic (+)-EGCG or (+)-GCG, along with each respective natural GTP as control, for 24 hours. Cells were then harvested, and analyzed by cell cycle analysis by flow cytometry. […] Growth arrest was determined by the increase in the percentage of the G1 population.

[1] = test system: 26S proteasome in a Jurkat cell lysate; assay: Chymotrypsin-like activity of 26S proteasome in Jurkat cell lysate; type: biochemical, human; settings: 10 μM
Method: To determine the specificity of the synthetic GTP analogs, their effects were tested on the chymotrypsin-like and trypsin-like activities of the 26S proteasome in a Jurkat cell lysate. […] (+)-GCG at the same concentration inhibited ˜50% of the chymotrypsin-like activity. The potencies of (+)-EGCG and (+)-GCG were similar to those of their natural partners, respectively (FIG. 17A). […] Furthermore, none of the synthetic or control natural compounds could inhibit more than 15% of activity of a purified calpain enzyme (FIG. 17C). […] Values are mean triplicates and error bars denote standard deviations.

purified 20S proteasome [2] = target: purified 20S proteasome (UniProt Q9P992); assay: Inhibition of chymotrypsin-like activity of purified 20S proteasome (source not stated); type: biochemical; design: other: 1 μM; other: 10 μM; settings: 1 μM
purified 20S proteasome, sequence (Q9P992 whole entry): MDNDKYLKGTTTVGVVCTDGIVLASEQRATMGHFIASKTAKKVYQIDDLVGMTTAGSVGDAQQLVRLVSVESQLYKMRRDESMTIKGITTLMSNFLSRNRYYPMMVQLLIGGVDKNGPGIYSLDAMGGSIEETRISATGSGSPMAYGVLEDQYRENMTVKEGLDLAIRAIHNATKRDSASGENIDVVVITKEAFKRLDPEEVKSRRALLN
Method: (§1) Inhibition of purified 20S proteasome activity by natural or synthetic GTPs. Purified prokaryotic (0.5 μg) or eukaryotic (0.02 μg) 20S proteasome was incubated with 20 μM fluorogenic peptide substrate, Suc-Leu-Leu-Val-Tyr-AMC for 30 min at 37° C. in […] of assay buffer (50 mM Tris-HCl, pH 7.5), with or without a natural or synthetic tea polyphenol. After incubation, production of hydrolyzed 7-amido-4-methyl-coumarin (AMC) groups was measured using a multi-well plate VERSAFLUOR Fluorometer with an excitation filter of 380 nm and an emission filter of 460 nm (BIO-RAD), and a multi-well plate reader Wallac 1420 VICTORTM^2 with an excitation filter of 355 nm and an emission filter of 460 nm (EG&G WALLAC).

purified 20S proteasome [3] = target: purified 20S proteasome (UniProt Q9P992); assay: as above; type: biochemical; design: IC50; other: purified 20S proteasome, multiple concentrations; settings: purified 20S proteasome, multiple concentrations
Method: as §1

NK cells (YT cell line) = assay: Western blot of proteasome target proteins in non-transformed NK cells (YT line); type: cell-based, human; settings: treatment up to 12 hour
Method: Cell Culture, Cell Extract Preparation, and Western Blot Assay. Human leukemia Jurkat T and prostate cancer LNCaP cells were cultured in RPMI 1640 medium supplemented with 10% fetal calf serum, 100 units/ml of penicillin, and 100 μg/ml streptomycin. Human immortalized, non-transformed NK cells (YT cell line) (38) were cultured in RPMI 1640 supplemented with 1 mM MEM sodium pyruvate solution, 0.1 mM MEM non-essential amino acids solution, 10% fetal calf serum. 100 units/ml penicillin, and 100 μg/ml streptomycin. Normal (WI-38) and simian virus 40 (SV40)-transformed (VA-13) human fibroblasts were grown in Dulbecco's modified Eagle's medium supplemented with 10% fetal calf serum, 100 units/ml of penicillin and 100 μg/ml of streptomycin. All cells were maintained at 37° C. in a humidified incubator with an atmosphere of 5% CO2. A whole cell extract was prepared in accordance with An et al. (An, B. et al. Cell Death Differ, 1998, 5:1062-75). Briefly, cells were harvested, washed with PBS twice, and homogenized in a lysis buffer [50 mM Tris-HCl (pH 8.0), 5 mM EDTA, 150 mM NaCl, 0.5% NP-40, 0.5 mM phenylmethylsulfonyl fluoride, and 0.5 mM dithiothreitol] for 30 min at 4° C. Afterwards, lysates were centrifuged at 12,000×g for 15 min at 4° C., and the supernatants were collected as whole cell extracts. Equal amounts of protein extract (60 μg) were resolved by SDS-polyacrylamide gel electrophoresis and transferred to a nitrocellulose membrane using a Semi-Dry Transfer system (BIO-RAD, Hercules, Calif.). Jurkat T, LNCaP, or DU-145 cells were treated with various concentrations of synthetic or natural tea polyphenols for indicted hours. The enhanced chemiluminescence (ECL) Western blot analysis was then performed using specific antibodies to the proteins of interest (p^27kip, IκB-α, PARP, Bax or actin). The ratio of p27 or IκB-α to the corresponding actin was determined by scanning intensities of the protein bands. […]

## O=C(OC1Cc2c(O)cc(O)cc2OC1c1cc(O)c(O)c(O)c1)c1cc(O)c(O)c(O)c1 (single isomer, unassigned; (+)) [(+)-EGCG]
DU145 cells
  Bax protein levels: neither (+)-EGCG nor (−)-EGCG was able to increase the levels of Bax protein
LNCaP cells
  increase in G1 arrest as compared to (−)-EGCG: approximately 30%
  increase of G1 population (G1 arrest): 18%
[1]
  inhibition of chymotrypsin-like activity of 26S proteasome: 76%
Purified 20S proteasome [2]
  inhibition of proteasomal activity: 86%
Purified 20S proteasome [3]; read-out: IC50
  IC50: 210 nM

## O=C(OC1Cc2c(O)cc(O)cc2OC1c1cc(O)c(O)c(O)c1)c1cc(O)c(O)c(O)c1 (single isomer, unassigned; (+)) [(+)-GCG]
LNCaP cells
  increase of G1 population (G1 arrest): ~14%
[1]
  inhibition of chymotrypsin-like activity of 26S proteasome: ~50%
Purified 20S proteasome [2]
  inhibition of proteasomal activity: 70%
Purified 20S proteasome [3]
  IC50: 410 nM

## O=C(O[C@@H]1Cc2c(O)cc(O)cc2O[C@@H]1c1cc(O)c(O)c(O)c1)c1cc(O)c(O)c(O)c1 [(−)-EGCG, (−)-epigallocatechin-3-gallate, reference compound]
NK cells (YT cell line)
  IκB-α expression: unchanged
  p27 expression: no p27 expression was detected
DU145 cells
  Bax protein levels: neither (+)-EGCG nor (−)-EGCG was able to increase the levels of Bax protein
LNCaP cells
  increase of G1 population (G1 arrest): ~14%

## O=C(N[C@@H]1Cc2c(O)cc(O)cc2O[C@@H]1c1cc(O)c(O)c(O)c1)c1cc(O)c(O)c(O)c1 [(−)-EGCG-amide, (−)-[2R,3R]-N-[5,7-Dihydroxy-2-(3,4,5-trihydroxyphenyl)-chroman-3-yl]-3,4,5-trihydroxybenzamide]
NK cells (YT cell line)
  IκB-α expression: unchanged
